From patent US20240252472A1, “COMBINATIONS FOR TREATING CANCER” (Purdue Pharma L.P., priority 2023, published 2024)

Key:
Assay type in all cases: cell-based, human
CD38 = CD38 surface expression in MM cell lines by flow cytometry
Procedure: Cell Treatment with EDO-S101 MM cells (MM1S, JJN3, KMS12-BM, RPMI-8226, U266, MOLP-8) were either treated with a control (0 μM EDO-S101, DMSO vehicle) or treated with EDO-S101 (0.1, 0.5, 1 or 2.5 μM in DMSO) for 48 hours, unless indicated otherwise.
For surface staining, cells were incubated with the appropriate antibodies and 7AAD (Immunostep) for 15 min in the dark. Data were acquired using a FACSCalibur cytometer (BD Biosciences) and analyzed using Infinicyt™ software (Cytognos). Specifically, the expression of CD38 or ligands for NK cell activating receptors (MICA, MICB, ULBP1-3, PVR and CD112) in MM cell lines was determined on the viable cell population (7AAD-). In primary myeloma cells, the expression of CD38 was analyzed over the viable myeloma population using the panel CD138-FITC/CD56-PE/7AAD/CD38-APC, whereas MICA/B-AF488/CD56-PE/7AAD/CD38-APC panel was used to determine MICA/B expression. Normalized median fluorescence intensity (MFI) was calculated by dividing median fluorescence obtained with the specific antibody by median fluorescence of the corresponding isotype control. MFI for each treatment was expressed as a percentage relative to the control (100%, cells cultured in media with DMSO). […]

CD38 mRNA = CD38 mRNA by RT-qPCR in MM cell lines; details: MM1.S, JJN3, RPMI-8226; 1 and 2.5 μM, 36 hours
Procedure: (§1) Real time quantitative PCR (RT-qPCR) Total RNA was isolated using the RNeasy Mini Kit (Qiagen, Hilden, Germany). Following reverse transcription, PCR was performed using TaqMan Gene Expression Assays (Applied Biosystems, Foster City, CA, USA): CD38 (Hs01120071_m1), MICA (Hs00741286_m1), MICB (Hs00792952_m1) and GAPDH (Hs99999905_m1). The results were expressed as fold change relative to expression of the target gene in control cells, using endogenous expression of GAPDH for normalization.

MM cells (MOLP-8) = assay: Daratumumab-mediated ADCP, macrophage/myeloma co-culture; details: MM cells pre-treated 2.5 μM 48 hours; macrophages 3:1, daratumumab 4 hours; vs not pre-treated
Procedure: Mononuclear cells were isolated from buffy coats from healthy donors using density gradient centrifugation with Ficoll and subsequently CD14+ monocytes were magnetically isolated in an autoMACS® Pro Separator. Monocytes were cultured for 7 days in the presence of GM-CSF (10 ng/mL) to induce differentiation to macrophages. For the evaluation of ADCP, myeloma cells were either untreated or pre-treated with 2.5 μM EDO-S101 for 48 hours. Cells were washed to remove EDO-S101 from the culture medium, and untreated and pre-treated myeloma cells were stained with PKH26. Co-cultures of macrophages and myeloma cells^PKH26+ (ratio 3:1) were incubated with different concentrations of daratumumab or the corresponding isotype control for 4 hours at 37° C. ADCP was evaluated by flow cytometry with the panel: CD11b-FITC/PKH26/CD138-APC. […]
ADCP was quantified as the percentage of double positive events using the following formula: […]
‘Treatment double positive cells’ refers to the proportion of macrophages (as a percentage) determined to have phacocytosed MM cells in co-cultures treated with daratumumab. ‘Control double positive cells’ refers to the proportion of macrophages (as a percentage) determined to have phacocytosed MM cells in co-cultures that were ED-S101 untreated or pre-treated but not treated with daratumumab.
Elimination of myeloma cells was calculated using the following formula: […]

MICB mRNA = MICB mRNA by RT-qPCR in MM cell lines; details: all four MM cell lines except MOLP-8; 1 and 2.5 μM, 36 hours
Procedure: as §1

Cn1c(CCCCCCC(=O)NO)nc2cc(N(CCCl)CCCl)ccc21 [EDO-S101, 7-(5-(bis(2-chloroethyl)amino)-1-methyl-1H-benzo[d]imidazol-2-yl)-N-hydroxyheptanamide]
percentage of CD38+ cell population (CD38; JJN3 cell line, 1 and 2.5 μM): significantly increased
CD38 surface expression (normalized MFI) (CD38; MM1.S, JJN3, KMS12-BM, RPMI-8226, U226, MOLP-8, 0.1, 0.5, 1 and 2.5 μM, 48 hours, relative to DMSO control, only exception NCI-H929): significantly increased
CD38 expression at the transcriptional level (qPCR) (CD38 mRNA): increased
ADCP: percentage of double positive events (macrophages that have phagocytosed myeloma cells) (MM cells (MOLP-8)): increased
ADCP: percentage of eliminated MM cells (MM cells (MOLP-8)): decreased
expression of MICB at the mRNA level (MICB mRNA): increased
